In US5679671A, “Amino acid derivative” (Eisai Co., Ltd., priority 1993, dated 1997):

Target: T1, ACE (Rattus norvegicus, UniProt P47820)
T1 construct: membrane fraction prepared from rat lung; from tissue; host or cells: rat lung, membrane fraction (method of Wu-Wong et al.)
T1 sequence (P47820 36-1313): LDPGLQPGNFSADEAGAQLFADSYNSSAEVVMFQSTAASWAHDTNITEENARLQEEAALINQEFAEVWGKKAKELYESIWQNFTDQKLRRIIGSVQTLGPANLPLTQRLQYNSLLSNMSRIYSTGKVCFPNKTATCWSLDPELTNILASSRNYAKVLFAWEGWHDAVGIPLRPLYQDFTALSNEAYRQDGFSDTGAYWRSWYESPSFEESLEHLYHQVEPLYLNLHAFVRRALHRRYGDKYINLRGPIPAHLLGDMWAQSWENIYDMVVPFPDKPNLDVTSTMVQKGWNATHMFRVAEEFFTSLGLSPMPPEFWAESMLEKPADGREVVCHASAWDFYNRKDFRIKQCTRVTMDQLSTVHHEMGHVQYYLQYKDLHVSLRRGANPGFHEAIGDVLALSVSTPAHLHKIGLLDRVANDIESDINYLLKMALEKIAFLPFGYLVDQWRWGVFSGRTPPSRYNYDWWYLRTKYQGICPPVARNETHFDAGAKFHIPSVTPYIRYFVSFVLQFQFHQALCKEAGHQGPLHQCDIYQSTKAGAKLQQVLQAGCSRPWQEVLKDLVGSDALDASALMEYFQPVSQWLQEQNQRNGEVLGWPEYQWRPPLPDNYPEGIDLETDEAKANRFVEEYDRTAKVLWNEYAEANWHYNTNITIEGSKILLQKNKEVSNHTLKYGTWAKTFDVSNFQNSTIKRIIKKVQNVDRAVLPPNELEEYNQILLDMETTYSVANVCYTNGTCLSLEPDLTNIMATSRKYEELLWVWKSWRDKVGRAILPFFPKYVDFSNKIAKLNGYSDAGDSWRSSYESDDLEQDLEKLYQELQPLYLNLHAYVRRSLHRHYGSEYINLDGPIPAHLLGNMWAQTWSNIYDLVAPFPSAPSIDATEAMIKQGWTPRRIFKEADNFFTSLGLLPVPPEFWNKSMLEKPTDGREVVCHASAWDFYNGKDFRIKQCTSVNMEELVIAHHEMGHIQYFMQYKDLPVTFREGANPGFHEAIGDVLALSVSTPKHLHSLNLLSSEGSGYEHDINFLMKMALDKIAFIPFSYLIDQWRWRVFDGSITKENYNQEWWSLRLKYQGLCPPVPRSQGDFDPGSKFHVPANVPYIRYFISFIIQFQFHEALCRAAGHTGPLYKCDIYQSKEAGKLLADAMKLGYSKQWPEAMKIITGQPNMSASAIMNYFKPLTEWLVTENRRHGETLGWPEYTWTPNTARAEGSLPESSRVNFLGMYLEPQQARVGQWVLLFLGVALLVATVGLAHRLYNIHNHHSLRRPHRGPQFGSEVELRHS
Assay: ACE inhibition activity using rat lung (Experiment C-2)
Assay type: biochemical
Details: Table C-1; rat lung membrane fraction, borate buffer pH 8.3
Description: The ACE inhibition activity was determined by using a membrane fraction prepared from rat lung in accordance with the method of Wu-Wong et al. (Characterization of Endthelin Converting Enzyme in Rat Lung., Junshyum R. Wu-Wong, Gerald P. Budzik, Edward M. Devine and Terry J. Opgenorth, Biochem. Biophys. Res. Commun., 1990, 171, 1291-1296.).
The ACE activity was determined with the use of a modification (modified to a borate buffer, pH 8.3) of the method of Cushman and Cheung (Spectrophotometric Assay and Properties of the Angiotensin-Converting Enzyme of Rabbit Lung., Cushman D. W. and Cheung H. S., 1971, 20, 1637-1648.).
In the presence of ACE, the hippurate liberated from hippuryl-histidyl-leucine (Hippuryl-His-Leu (PeptideInstitute Inc., Japan)) was extracted with ethyl acetate and then the absorbance was measured at a wavelength of 228 nm.
With respect to the ACE inhibition activity, the test compound was added to the reaction system as described above in such a manner as to give the final concentrations of 1, 3, 10, 30, 100, 300 and 1000 nM, an inhibition curve was prepared, and then the concentration at which 50% inhibition was achieved was taken as IC50. As a comparative compound, [4S-[4α,7α(R*),12bβ]]-7-[(1-oxo-2-(S)-thio-3-phenyl-propyl)amino]-1,2,3,4,6,7,8,12b-octahydro-6-oxopyrido-[2,1-a][2]benzazepine-4-carboxylic acid was used.

| Structure (SMILES) | IC50 [nM] |
| --- | --- |
| O=C(N[C@H]1Cc2ccccc2[C@H]2CCC[C@@H](C(=O)O)N2C1=O)[C@@H](S)Cc1ccccc1 [Comp. cpd. E-1, [4S-[4α,7α(R*),12bβ]]-7-[(1-oxo-2-(S)-thio-3-phenyl-propyl)amino]-1,2,3,4,6,7,8,12b-octahydro-6-oxopyrido-[2,1-a][2]benzazepine-4-carboxylic acid, reference compound] | 9 |
| CC[C@H](C)[C@H](S)C(=O)NC1CCc2ccccc2N(CC(=O)O)C1=O (stereo partly drawn) [Example A-9, 1-Carboxymethyl-3-[(2S,3S)-2-mercapto-3-methylvarelylamino]-1H-[1]benzazepin-2-one] | 13 |
| CC[C@H](C)[C@H](S)C(=O)N[C@H]1CCc2ccccc2N(CC(=O)O)C1=O [Example A-11, (S)-3-[(2S,3S)-2-Mercapto-3-methylvarelylamino]-1-carboxymethyl-2,3,4,5-tetrahydro-1H-[1]benzazepin-2-one] | 11 |
| CC[C@H](C)[C@H](S)C(=O)N[C@H]1CCC[C@H]2SC[C@@H](C(=O)O)N2C1=O [Example C-8, [3R-[3α,6α,(S*),9aβ]]-6-[[(2S,3S)-3-methyl-1-oxo-2-thiopentyl]amino]-octahydro-5-oxothiazol[3,2-a]-azepine-3-carboxylic acid] | 5.3 |
| CC[C@H](C)[C@H](S)C(=O)N[C@H]1Cc2ccc(-c3ccccc3)cc2[C@H]2CCC[C@@H](C(=O)O)N2C1=O [Example C-14, [4S-[4α,7α(R*),12bβ]]-7-[[(2S,3S)-3-Methyl-1-oxo-2-thiopentyl]amino]-6-oxo-11-phenyl-1,2,3,4,6,7,8,12b-octahydropyrido[2,1-a][2]benzazepine-4-carboxylic acid] | 12.3 |
